In the NIST ThermoML archive (doi:10.1021/je050116g):
± gives the expanded uncertainty stated by the source.

What was measured:
[1] = relative permittivity at various frequencies (dimensionless); xn = mol fraction of the nth substance listed; conditions: 298.15 K, 101.33 kPa, Liquid, Frequency=0.03 MHz, Parallel plate capacitor
[2] = xn = mol fraction of the nth substance listed; conditions: 298.15 K, 101.33 kPa, Liquid
[3] = 298.15 K; 101.33 kPa; Liquid

CCCCCCCCCCO [decan-1-ol] + CCCCCCCCCCCC
Conditions	mass density, [2] [kg/m3]	relative permittivity, [1]
x1 = 0.001264	745.351 ± 0.26	–
x1 = 0.001971	–	2.00974 ± 0.00037
x1 = 0.002235	745.401 ± 0.26	–
x1 = 0.002902	–	2.01098 ± 0.00037
x1 = 0.003662	–	2.01199 ± 0.00037
x1 = 0.004525	–	2.01314 ± 0.00037
x1 = 0.00462	745.527 ± 0.26	–
x1 = 0.005614	–	2.01459 ± 0.00037
x1 = 0.006788	–	2.01613 ± 0.00036
x1 = 0.007983	–	2.01764 ± 0.00035
x1 = 0.009268	–	2.0192 ± 0.00033
x1 = 0.01089	–	2.02107 ± 0.00032
x1 = 0.01183	745.934 ± 0.26	–
x1 = 0.01283	–	2.02321 ± 0.0003
x1 = 0.01445	–	2.02492 ± 0.00029
x1 = 0.01654	–	2.027 ± 0.00027
x1 = 0.01864	–	2.029 ± 0.00026
x1 = 0.02121	–	2.03137 ± 0.00025
x1 = 0.02459	–	2.03426 ± 0.00024
x1 = 0.02958	–	2.03864 ± 0.00024
x1 = 0.0323	747.221 ± 0.26	–
x1 = 0.03739	–	2.04514 ± 0.00023
x1 = 0.04685	–	2.05286 ± 0.00023
x1 = 0.05669	748.861 ± 0.26	2.06088 ± 0.00023
x1 = 0.06704	–	2.06945 ± 0.00023
x1 = 0.07856	–	2.07915 ± 0.00024
x1 = 0.08334	750.666 ± 0.26	–
x1 = 0.08846	–	2.08773 ± 0.00025
x1 = 0.1051	–	2.10262 ± 0.00025
x1 = 0.1069	752.273 ± 0.26	–

CCCCCCCCCCCC [dodecane]
Conditions	mass density [kg/m3]
[3]	745.435 ± 0.3

CCCCCCCCCCCC [dodecane] + CCO
Conditions	mass density [kg/m3]	relative permittivity
[1], x2 = 0.000779	–	2.00812 ± 0.00035
[1], x2 = 0.001608	–	2.00915 ± 0.00035
[1], x2 = 0.002571	–	2.01035 ± 0.00035
[1], x2 = 0.003578	–	2.0116 ± 0.00035
[1], x2 = 0.004642	–	2.01293 ± 0.00034
[1], x2 = 0.005982	–	2.01453 ± 0.00033
[1], x2 = 0.007701	–	2.01653 ± 0.00032
[1], x2 = 0.009387	–	2.0184 ± 0.0003
[1], x2 = 0.01111	–	2.02022 ± 0.00028
[1], x2 = 0.01308	–	2.02209 ± 0.00026
[1], x2 = 0.01589	–	2.02461 ± 0.00024
[1], x2 = 0.02008	–	2.02815 ± 0.00023
[1], x2 = 0.02502	–	2.03214 ± 0.00022
[1], x2 = 0.03098	–	2.03689 ± 0.00022
[1], x2 = 0.03829	–	2.04274 ± 0.00023
[1], x2 = 0.04601	–	2.04907 ± 0.00024
[1], x2 = 0.055	–	2.05682 ± 0.00025
[1], x2 = 0.06553	–	2.06649 ± 0.00027
[1], x2 = 0.07632	–	2.07716 ± 0.00029
[1], x2 = 0.08814	–	2.08986 ± 0.00032
[1], x2 = 0.1017	–	2.10596 ± 0.00033
[2], x2 = 0.00284	745.404 ± 0.26	–
[2], x2 = 0.0035	745.397 ± 0.26	–
[2], x2 = 0.00482	745.386 ± 0.26	–
[2], x2 = 0.0076	745.363 ± 0.26	–
[2], x2 = 0.01169	745.338 ± 0.26	–
[2], x2 = 0.01342	745.329 ± 0.26	–
[2], x2 = 0.0189	745.313 ± 0.26	–
[2], x2 = 0.02678	745.305 ± 0.26	–
[2], x2 = 0.04127	745.348 ± 0.26	–
[2], x2 = 0.06055	745.432 ± 0.26	–
[2], x2 = 0.08084	745.514 ± 0.26	–
[2], x2 = 0.09645	745.601 ± 0.26	–

CCCCCCCCO [octan-1-ol] + CCCCCCCCCCCC
Conditions	mass density [kg/m3]	relative permittivity
[1], x1 = 0.000468	–	2.00782 ± 0.00036
[1], x1 = 0.000994	–	2.0085 ± 0.00036
[1], x1 = 0.00174	–	2.00946 ± 0.00036
[1], x1 = 0.002707	–	2.0107 ± 0.00036
[1], x1 = 0.003781	–	2.01209 ± 0.00036
[1], x1 = 0.005049	–	2.01375 ± 0.00036
[1], x1 = 0.006519	–	2.01566 ± 0.00035
[1], x1 = 0.008207	–	2.01774 ± 0.00034
[1], x1 = 0.009844	–	2.01966 ± 0.00031
[1], x1 = 0.01266	–	2.02275 ± 0.00029
[1], x1 = 0.01671	–	2.02679 ± 0.00027
[1], x1 = 0.02183	–	2.03146 ± 0.00025
[1], x1 = 0.02777	–	2.03652 ± 0.00023
[1], x1 = 0.03323	–	2.04101 ± 0.00023
[1], x1 = 0.0398	–	2.04628 ± 0.00022
[1], x1 = 0.04865	–	2.05338 ± 0.00023
[1], x1 = 0.05937	–	2.06205 ± 0.00023
[1], x1 = 0.06843	–	2.06953 ± 0.00023
[1], x1 = 0.0778	–	2.07741 ± 0.00024
[1], x1 = 0.08823	–	2.08648 ± 0.00025
[1], x1 = 0.09795	–	2.0952 ± 0.00026
[1], x1 = 0.111	–	2.10743 ± 0.00026
[2], x1 = 0.00204	745.513 ± 0.26	–
[2], x1 = 0.00419	745.594 ± 0.26	–
[2], x1 = 0.00734	745.718 ± 0.26	–
[2], x1 = 0.01454	746.026 ± 0.26	–
[2], x1 = 0.02591	746.56 ± 0.26	–
[2], x1 = 0.03144	746.83 ± 0.26	–
[2], x1 = 0.04912	747.72 ± 0.26	–
[2], x1 = 0.06408	748.489 ± 0.26	–
[2], x1 = 0.08146	749.394 ± 0.26	–
[2], x1 = 0.1014	750.468 ± 0.26	–

CCCCCCCCCCO [decan-1-ol]
Conditions	mass density [kg/m3]
[3]	826.421 ± 0.27

CCCCO [butan-1-ol]
Conditions	mass density [kg/m3]
[3]	805.767 ± 0.29

CCCCCCCCCO [nonan-1-ol]
Conditions	mass density [kg/m3]
[3]	824.263 ± 0.27

CCCCCCCCCCCC [dodecane] + CCCO
Conditions	mass density [kg/m3]	relative permittivity
[1], x2 = 0.001113	–	2.00841 ± 0.00034
[1], x2 = 0.001805	–	2.00926 ± 0.00034
[1], x2 = 0.00262	–	2.01026 ± 0.00035
[1], x2 = 0.003582	–	2.01146 ± 0.00035
[1], x2 = 0.004766	–	2.01292 ± 0.00034
[1], x2 = 0.006045	–	2.01449 ± 0.00034
[1], x2 = 0.00741	–	2.01613 ± 0.00033
[1], x2 = 0.00918	–	2.01815 ± 0.00031
[1], x2 = 0.01131	–	2.0204 ± 0.00028
[1], x2 = 0.01408	–	2.02313 ± 0.00026
[1], x2 = 0.01818	–	2.02685 ± 0.00024
[1], x2 = 0.0234	–	2.03119 ± 0.00023
[1], x2 = 0.02953	–	2.03612 ± 0.00022
[1], x2 = 0.03486	–	2.04033 ± 0.00022
[1], x2 = 0.04243	–	2.04635 ± 0.00022
[1], x2 = 0.05033	–	2.05272 ± 0.00023
[1], x2 = 0.06022	–	2.06108 ± 0.00024
[1], x2 = 0.07048	–	2.07019 ± 0.00026
[1], x2 = 0.08292	–	2.08206 ± 0.00028
[1], x2 = 0.09516	–	2.09474 ± 0.00031
[1], x2 = 0.11	–	2.11157 ± 0.00032
[2], x2 = 0.00273	745.43 ± 0.26	–
[2], x2 = 0.00429	745.426 ± 0.26	–
[2], x2 = 0.007	745.424 ± 0.26	–
[2], x2 = 0.01162	745.429 ± 0.26	–
[2], x2 = 0.0181	745.456 ± 0.26	–
[2], x2 = 0.0248	745.504 ± 0.26	–
[2], x2 = 0.04304	745.689 ± 0.26	–
[2], x2 = 0.06062	745.916 ± 0.26	–
[2], x2 = 0.07866	746.164 ± 0.26	–
[2], x2 = 0.1025	746.495 ± 0.26	–

CCCCCCCO [heptan-1-ol]
Conditions	mass density [kg/m3]
[3]	818.746 ± 0.27

CCCCCCCO [heptan-1-ol] + CCCCCCCCCCCC
Conditions	mass density [kg/m3]	relative permittivity
[1], x1 = 0.000586	–	2.00786 ± 0.00036
[1], x1 = 0.001199	–	2.00865 ± 0.00036
[1], x1 = 0.001873	–	2.00953 ± 0.00036
[1], x1 = 0.002621	–	2.01049 ± 0.00036
[1], x1 = 0.003507	–	2.01164 ± 0.00036
[1], x1 = 0.004712	–	2.01319 ± 0.00036
[1], x1 = 0.006033	–	2.01489 ± 0.00035
[1], x1 = 0.007493	–	2.0167 ± 0.00034
[1], x1 = 0.009131	–	2.01867 ± 0.00033
[1], x1 = 0.01103	–	2.02082 ± 0.0003
[1], x1 = 0.01345	–	2.02338 ± 0.00028
[1], x1 = 0.01639	–	2.02628 ± 0.00026
[1], x1 = 0.02108	–	2.03055 ± 0.00025
[1], x1 = 0.02571	–	2.03449 ± 0.00023
[1], x1 = 0.03171	–	2.03943 ± 0.00023
[1], x1 = 0.0379	–	2.0444 ± 0.00022
[1], x1 = 0.04415	–	2.0494 ± 0.00022
[1], x1 = 0.0517	–	2.05543 ± 0.00023
[1], x1 = 0.06004	–	2.06219 ± 0.00023
[1], x1 = 0.07079	–	2.07111 ± 0.00024
[1], x1 = 0.08135	–	2.08016 ± 0.00024
[1], x1 = 0.09339	–	2.09089 ± 0.00026
[1], x1 = 0.1085	–	2.10505 ± 0.00026
[2], x1 = 0.00183	745.491 ± 0.26	–
[2], x1 = 0.00384	745.55 ± 0.26	–
[2], x1 = 0.00719	745.657 ± 0.26	–
[2], x1 = 0.01509	745.934 ± 0.26	–
[2], x1 = 0.02602	746.357 ± 0.26	–
[2], x1 = 0.03537	746.74 ± 0.26	–
[2], x1 = 0.04943	747.341 ± 0.26	–
[2], x1 = 0.06486	748.019 ± 0.26	–
[2], x1 = 0.08181	748.778 ± 0.26	–
[2], x1 = 0.1023	749.709 ± 0.26	–
